Molecules are shown by their SMILES. Where a name gives a salt, the structure may show the parent alone.

Here are results for one compound from patent US10670605B2, “Cysteine reactive probes and uses thereof” (The Scripps Research Institute, priority 2015, dated 2020).

Assay in all cases: isoTOP-ABPP of compound-treated primary human T cells
What all share (assay type): cell-based

The target of experiment [1] is T1, Cys residues in primary human T cells (Homo sapiens, UniProt O14920).
T1 sequence (O14920 1-756): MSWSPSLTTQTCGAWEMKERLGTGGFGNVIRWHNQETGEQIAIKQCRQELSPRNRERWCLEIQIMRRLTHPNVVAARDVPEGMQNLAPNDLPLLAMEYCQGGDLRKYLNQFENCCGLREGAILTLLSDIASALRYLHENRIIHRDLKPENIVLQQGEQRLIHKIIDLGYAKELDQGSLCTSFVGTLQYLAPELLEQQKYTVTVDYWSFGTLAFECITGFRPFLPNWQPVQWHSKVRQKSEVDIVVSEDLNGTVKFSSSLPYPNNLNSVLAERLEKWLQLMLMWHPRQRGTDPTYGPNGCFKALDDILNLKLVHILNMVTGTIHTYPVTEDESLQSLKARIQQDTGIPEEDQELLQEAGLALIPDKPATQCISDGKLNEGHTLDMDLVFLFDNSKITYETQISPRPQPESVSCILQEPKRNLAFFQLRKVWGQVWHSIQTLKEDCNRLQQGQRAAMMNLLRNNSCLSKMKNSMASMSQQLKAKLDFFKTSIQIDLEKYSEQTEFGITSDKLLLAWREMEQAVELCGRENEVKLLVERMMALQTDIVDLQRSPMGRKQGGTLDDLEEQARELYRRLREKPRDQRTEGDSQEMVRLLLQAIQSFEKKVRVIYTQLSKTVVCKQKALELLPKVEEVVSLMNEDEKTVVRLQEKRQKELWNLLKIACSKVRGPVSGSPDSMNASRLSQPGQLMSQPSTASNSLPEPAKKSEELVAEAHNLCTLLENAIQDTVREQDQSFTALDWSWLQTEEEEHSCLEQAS
The note with it: IKBKB C464 (O14920).

The target of experiment [2] is T2, Cys residues in primary human T cells (Homo sapiens, UniProt Q9Y4W2).
T2 sequence (Q9Y4W2 1-734): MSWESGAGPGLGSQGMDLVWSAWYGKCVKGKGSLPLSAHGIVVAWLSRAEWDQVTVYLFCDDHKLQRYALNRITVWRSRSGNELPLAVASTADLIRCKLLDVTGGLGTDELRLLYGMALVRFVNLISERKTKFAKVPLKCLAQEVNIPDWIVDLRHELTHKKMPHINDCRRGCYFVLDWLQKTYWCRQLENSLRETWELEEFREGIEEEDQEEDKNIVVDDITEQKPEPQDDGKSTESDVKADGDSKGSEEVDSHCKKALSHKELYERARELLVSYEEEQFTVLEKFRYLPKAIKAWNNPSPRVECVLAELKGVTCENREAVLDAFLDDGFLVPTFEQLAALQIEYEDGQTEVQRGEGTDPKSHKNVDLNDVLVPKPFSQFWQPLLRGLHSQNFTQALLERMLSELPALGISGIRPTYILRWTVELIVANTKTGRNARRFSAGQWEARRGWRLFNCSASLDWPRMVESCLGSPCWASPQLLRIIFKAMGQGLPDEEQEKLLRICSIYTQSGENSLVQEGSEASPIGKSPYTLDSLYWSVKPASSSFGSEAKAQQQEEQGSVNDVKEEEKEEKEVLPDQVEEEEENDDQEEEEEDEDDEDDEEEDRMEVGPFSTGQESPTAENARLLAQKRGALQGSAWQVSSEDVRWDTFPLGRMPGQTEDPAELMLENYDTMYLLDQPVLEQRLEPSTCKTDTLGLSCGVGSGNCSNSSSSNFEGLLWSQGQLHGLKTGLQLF
The settings on record: LAS1L C456 (Q9Y4W2).

The target of experiment [3] is T3, Cys residues in primary human T cells (Homo sapiens, UniProt Q13045).
T3 sequence (Q13045 1-1269): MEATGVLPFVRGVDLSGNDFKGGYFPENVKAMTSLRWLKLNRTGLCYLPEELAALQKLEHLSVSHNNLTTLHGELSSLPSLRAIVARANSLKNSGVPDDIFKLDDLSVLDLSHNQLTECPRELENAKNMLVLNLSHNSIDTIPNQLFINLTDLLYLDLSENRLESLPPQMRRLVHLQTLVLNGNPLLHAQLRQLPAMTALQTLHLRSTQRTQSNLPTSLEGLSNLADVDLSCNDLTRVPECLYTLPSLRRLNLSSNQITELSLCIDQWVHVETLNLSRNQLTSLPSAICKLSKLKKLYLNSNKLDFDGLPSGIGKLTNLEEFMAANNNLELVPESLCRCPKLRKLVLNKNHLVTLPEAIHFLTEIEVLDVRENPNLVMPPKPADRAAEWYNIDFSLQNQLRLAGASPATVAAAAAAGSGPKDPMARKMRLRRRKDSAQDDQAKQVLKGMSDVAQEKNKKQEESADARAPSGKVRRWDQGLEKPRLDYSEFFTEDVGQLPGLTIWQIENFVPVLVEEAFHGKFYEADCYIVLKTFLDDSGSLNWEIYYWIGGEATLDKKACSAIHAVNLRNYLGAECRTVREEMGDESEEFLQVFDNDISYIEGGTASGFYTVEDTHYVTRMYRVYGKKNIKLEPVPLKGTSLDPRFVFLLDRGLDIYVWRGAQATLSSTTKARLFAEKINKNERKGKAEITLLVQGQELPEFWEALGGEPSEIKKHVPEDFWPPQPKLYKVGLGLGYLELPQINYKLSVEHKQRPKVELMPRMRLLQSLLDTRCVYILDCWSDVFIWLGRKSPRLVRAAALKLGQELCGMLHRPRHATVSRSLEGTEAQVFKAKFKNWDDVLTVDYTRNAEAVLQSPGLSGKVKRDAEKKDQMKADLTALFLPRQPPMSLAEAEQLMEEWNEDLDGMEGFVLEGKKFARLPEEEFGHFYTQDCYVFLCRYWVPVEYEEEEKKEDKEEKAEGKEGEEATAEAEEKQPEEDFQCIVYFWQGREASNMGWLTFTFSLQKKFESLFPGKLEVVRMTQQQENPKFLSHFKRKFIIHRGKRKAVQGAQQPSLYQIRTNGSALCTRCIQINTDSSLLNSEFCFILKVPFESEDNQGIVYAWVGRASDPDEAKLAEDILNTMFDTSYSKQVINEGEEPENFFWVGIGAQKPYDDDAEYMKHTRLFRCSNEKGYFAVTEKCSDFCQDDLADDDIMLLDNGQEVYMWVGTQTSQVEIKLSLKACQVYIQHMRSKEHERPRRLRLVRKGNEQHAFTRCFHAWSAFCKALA
The note with it: FLU Protein flightless-1 homolog C46 (Q13045).

As for `COC(=O)/C=C/C(=O)OC` [DMF, dimethyl fumarate], the “R value (DMSO/DMF)” value was 2.59 in experiment [1] (DMF 10 μM 4h); 3.96 in experiment [1] (DMF 50 μM 1h); 10.12 in experiment [1] (DMF 50 μM 2h); 20 in experiment [1] (DMF 50 μM 4h); 1.29 in experiment [2] (DMF 10 μM 4h); 1.8 in experiment [2] (DMF 50 μM 1h). Further, the “R value (DMSO/DMF)” value was 3.42 in experiment [2] (DMF 50 μM 2h); 5.61 in experiment [2] (DMF 50 μM 4h); 1.55 in experiment [3] (DMF 10 μM 4h); 2.05 in experiment [3] (DMF 50 μM 1h); 3.57 in experiment [3] (DMF 50 μM 2h); 4.5 in experiment [3] (DMF 50 μM 4h).
